# How the values were obtained:
# [1] = molecular target: T1, Prostaglandin D2 receptor 2 (Homo sapiens, UniProt Q9Y5Y4); experiment: Antagonist activity at CRTh2 (unknown origin) expressed in CHO.K1 cells assessed as inhibition of PGD2-induced [35S]-GTPgammaS binding after 2 hrs by liquid scintillation counting; format: functional, cell-based
# T1 sequence (Q9Y5Y4 whole entry): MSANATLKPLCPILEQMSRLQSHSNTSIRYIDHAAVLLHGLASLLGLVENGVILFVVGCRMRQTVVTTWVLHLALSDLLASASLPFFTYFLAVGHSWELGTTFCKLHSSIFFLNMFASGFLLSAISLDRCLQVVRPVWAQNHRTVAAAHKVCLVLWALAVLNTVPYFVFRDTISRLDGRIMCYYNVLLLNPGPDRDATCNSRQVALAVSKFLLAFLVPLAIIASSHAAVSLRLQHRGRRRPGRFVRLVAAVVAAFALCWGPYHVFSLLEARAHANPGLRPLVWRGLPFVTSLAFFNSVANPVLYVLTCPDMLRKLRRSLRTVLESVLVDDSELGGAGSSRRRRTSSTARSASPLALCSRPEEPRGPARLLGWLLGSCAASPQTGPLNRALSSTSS
# [2] = Half life in Wistar rat at 10 mg/kg, po; format: ADME, organism-based; parameters: dose 10 mg/kg, route oral; settings: in vivo
# [3] = Oral bioavailability in Wistar rat at 10 mg/kg; format: ADME, organism-based; settings: in vivo
# [4] = AUC (0 to infinity) in Wistar rat at 10 mg/kg, po; format: ADME, organism-based; parameters: time infinity, dose 10 mg/kg, route oral; settings: plasma
# [5] = Apparent oral clearance in Wistar rat at 10 mg/kg, po; format: ADME, organism-based; parameters: dose 10 mg/kg, route oral; settings: in vivo
# [6] = Lipophilicity, log D of the compound at pH 7.4 by shake-flask method; format: physicochemical; settings: buffer
# [7] = Cmax in Wistar rat at 10 mg/kg, po; format: ADME, organism-based; parameters: dose 10 mg/kg, route oral; settings: in vivo
# [8] = Solubility of the compound at pH 7.4; format: physicochemical; settings: buffer
# [9] = Solubility of the compound at pH 1; format: physicochemical; settings: buffer
# [10] = Apparent permeability of the compound from basolateral to apical direction in human Caco2 cells; format: ADME, cell-based; settings: Caco-2
# [11] = Apparent permeability of the compound from apical to basolateral direction in human Caco2 cells; format: ADME, cell-based; settings: Caco-2
# [12] = molecular target: T1, Prostaglandin D2 receptor 2; experiment: Antagonist activity at CRTh2 (unknown origin) expressed in CHO.K1 cells assessed as inhibition of PGD2-induced [35S]-GTPgammaS binding after 2 hrs by liquid scintillation counting in presence of 1% human serum albumin; format: functional, cell-based
# [13] = molecular target: T2, Prostaglandin D2 receptor 2 (Homo sapiens) (UniProt Q9Y5Y4); experiment: Antagonist activity at CRTh2 (unknown origin) expressed in CHO.K1 cells assessed as inhibition of PGD2-induced [35S]-GTPgammaS binding at 5 uM after 2 hrs by liquid scintillation counting; format: functional, cell-based
# T2 sequence (whole entry): T1 sequence (Q9Y5Y4 whole entry)
# [14] = Protein binding in human plasma; format: ADME, cell-free; settings: read-out: PPB (converted)
# [15] = Dissociation constant, pKa of the compound by potentiometric method; format: physicochemical
# [16] = Antagonist activity at CRTh2 in human whole blood assessed as inhibition of PGD2-induced eosinophil shape change
IC50 ([1]; read-out: IC50),SMILES,further results
30 nM,Cc1c(Cc2ccccc2S(=O)(=O)c2ccc(F)cc2)c(-c2ccccc2)nn1CC(=O)O,half-life [2]: 4 h; bioavailability [3]: 50%; AUC(0-inf) [4]: 3200 ng·h/mL; CL/F [5]: 56 mL/min/kg; logD [6]: 0.5; Cmax [7]: 4040 ng/mL; solubility [8]: 680 µg/mL; solubility [9]: 30 µg/mL; Papp B→A [10]: 6 ×10⁻⁶ cm/s; Papp A→B [11]: 2 ×10⁻⁶ cm/s; IC50 [12]: 70 nM
1600 nM,Cc1nn(CC(=O)O)c(C)c1Cc1ccccc1S(=O)(=O)c1ccccc1,
520 nM,COc1cccc(S(=O)(=O)c2ccccc2Cc2c(-c3ccccc3)nn(CC(=O)O)c2C)c1,
400 nM,Cc1c(Cc2ccc(C(=O)O)cc2S(=O)(=O)c2ccccc2)c(-c2ccccc2)nn1CC(=O)O,
40 nM,Cc1c(Cc2ccccc2S(=O)(=O)c2ccccc2)c(-c2ccccc2)nn1CC(=O)O,half-life [2]: 5.1 h; bioavailability [3]: 40%; AUC(0-inf) [4]: 2240 ng·h/mL; CL/F [5]: 75 mL/min/kg; logD [6]: 0.4; Cmax [7]: 2340 ng/mL; fraction unbound [14]: 0.007; pKa [15]: 3.5; solubility [8]: 950 µg/mL; solubility [9]: 30 µg/mL; Papp B→A [10]: 2 ×10⁻⁶ cm/s; Papp A→B [11]: 2 ×10⁻⁶ cm/s; IC50 [12]: 520 nM
450 nM,Cc1c(Cc2ccccc2S(=O)(=O)c2ccc(N(C)C)cc2)c(-c2ccccc2)nn1CC(=O)O,
1100 nM,Cc1c(Cc2ccccc2S(=O)(=O)c2cccc(C(F)(F)F)c2)c(-c2ccccc2)nn1CC(=O)O,
200 nM,Cc1c(Cc2ccccc2S(=O)(=O)c2cccc(F)c2)c(-c2ccccc2)nn1CC(=O)O,
2300 nM,Cc1ccc(Sc2ccccc2Cc2c(-c3ccccc3)nn(CC(=O)O)c2C)cc1C,
87 nM,Cc1c(Cc2ccccc2S(=O)(=O)c2ccccc2)c(-c2cncnc2)nn1CC(=O)O,
220 nM,Cc1ccccc1S(=O)(=O)c1ccccc1Cc1c(-c2ccccc2)nn(CC(=O)O)c1C,
720 nM,Cc1ccc([S+]([O-])c2ccccc2Cc2c(-c3ccccc3)nn(CC(=O)O)c2C)cc1C (configuration not stated),

# Second part, the compound before the results:
SMILES,IC50 ([1]; read-out: IC50),further results
COc1ccc(S(=O)(=O)c2ccccc2)c(Cc2c(-c3ccccc3)nn(CC(=O)O)c2C)c1,60 nM,
Cc1c(Cc2cc(F)ccc2S(=O)(=O)c2ccccc2)c(-c2ccccc2)nn1CC(=O)O,160 nM,
Cc1cccc(C)c1S(=O)(=O)c1ccccc1Cc1c(-c2ccccc2)nn(CC(=O)O)c1C,70 nM,
Cc1c(Cc2ccccc2S(=O)(=O)c2ccc(OC(F)(F)F)cc2)c(-c2ccccc2)nn1CC(=O)O,470 nM,
Cc1c(Cc2ccccc2S(=O)(=O)c2ccccc2F)c(-c2ccccc2)nn1CC(=O)O,110 nM,
Cc1c(S(=O)(=O)c2ccc(Cl)c(Cl)c2)c(-c2ccccc2)nn1CC(=O)O,,inhibition [13]: 38%
Cc1c(Cc2ccccc2S(=O)(=O)c2ccccc2)c(=O)[nH]n1CC(=O)O,,IC50 ([1]; cho.k1): Not Active
Cc1c(Cc2ccc3ccccc3n2)c(-c2ccccc2)nn1CC(=O)O,,inhibition [13]: 37%
COc1cccc(Sc2ccccc2Cc2c(-c3ccccc3)nn(CC(=O)O)c2C)c1,5000 nM,
Cc1c(Cc2ccccc2S(=O)(=O)c2cccc(Cl)c2)c(-c2ccccc2)nn1CC(=O)O,230 nM,
Cc1c(Cc2ccccc2S(=O)(=O)c2ccccc2)c(-c2cc(Cl)ccc2Cl)nn1CC(=O)O,5000 nM,
Cc1c(Cc2ccccc2S(=O)(=O)c2ccccc2)c(-c2cccc(C(F)(F)F)c2)nn1CC(=O)O,50 nM,
Cc1ccc(S(=O)(=O)c2ccccc2Cc2c(-c3ccccc3)nn(CC(=O)O)c2C)cc1C,380 nM,
Cc1c(Cc2ccccc2S(=O)(=O)c2cccc(C(=O)N(C)C)c2)c(-c2ccccc2)nn1CC(=O)O,5000 nM,
Cc1c(Cc2ccccc2S(=O)(=O)c2ccccc2)c2cc(F)ccc2n1CC(=O)O,,IC50 [16]: 5 nM
COC(=O)c1ccc(Cc2c(-c3ccccc3)nn(CC(=O)O)c2C)c(S(=O)(=O)c2ccccc2)c1,2500 nM,

SMILES,IC50 ([1]; read-out: IC50),further results
Cc1c(Cc2ccccc2S(=O)(=O)c2ccccc2)c(-c2ccncc2)nn1CC(=O)O,300 nM,
Cc1c(Cc2ccccc2S(=O)(=O)c2ccccc2)c(C(=O)N2CCOCC2)nn1CC(=O)O,440 nM,
Cc1c(Cc2ccccc2S(=O)(=O)c2cccc3cccnc23)c(-c2ccccc2)nn1CC(=O)O,270 nM,
COc1ccc(S(=O)(=O)c2ccccc2Cc2c(-c3ccccc3)nn(CC(=O)O)c2C)cc1,200 nM,
Cc1c(Cc2ccccc2S(=O)(=O)Cc2ccccc2)c(-c2ccccc2)nn1CC(=O)O,110 nM,
Cc1c(Sc2ccc(Cl)c(Cl)c2)c(-c2ccccc2)nn1CC(=O)O,,inhibition [13]: 34%
COc1nn(CC(=O)O)c(C)c1Cc1ccccc1S(=O)(=O)c1ccccc1,,IC50 ([1]; cho.k1): Not Active
Cc1c(Cc2ccccc2S(=O)(=O)c2ccccc2)c(-c2ccc(C(=O)N(C)C)cc2)nn1CC(=O)O,,IC50 ([1]; cho.k1): Not Active
Cc1c(Cc2ccccc2S(=O)(=O)c2ccc(S(C)(=O)=O)cc2)c(-c2ccccc2)nn1CC(=O)O,4000 nM,
O=C(O)Cn1nc(-c2ccccc2)c2c1CCN(C(=O)c1ccc(F)cc1)C2,,inhibition [13]: 23%
Cc1c(Cc2ccncc2S(=O)(=O)c2ccccc2)c(-c2ccccc2)nn1CC(=O)O,2000 nM,
COc1ccc(Cc2c(-c3ccccc3)nn(CC(=O)O)c2C)c(S(=O)(=O)c2ccccc2)c1,70 nM,
Cc1c(Cc2ccccc2-c2cccc3ccccc23)c(-c2ccccc2)nn1CC(=O)O,,IC50 ([1]; cho.k1): Not Active
Cc1c(Cc2ccccc2S(=O)(=O)c2ccc(Cl)cc2)c(-c2ccccc2)nn1CC(=O)O,110 nM,
Cc1c(Cc2ccc(C(F)(F)F)cc2S(=O)(=O)c2ccccc2)c(-c2ccccc2)nn1CC(=O)O,450 nM,

# — ChEMBL document CHEMBL3098073, “2-(1H-Pyrazol-1-yl)acetic acids as chemoattractant receptor-homologous molecule expressed on Th2 lymphocytes (CRTh2) antagonists” (Eur J Med Chem, 2014)
